Data on 63 molecules can be found in patent US11390631B1, “Benzodiazepine derivatives as RSV inhibitors” (priority 2015, dated 2022).

The experiment deals with Human RSV-A (“Long” strain). Nature of the experiment: RSV-A assay: inhibition of cytopathic effect in Hep-2 cells, ATPlite readout. To be noted: human respiratory syncytial virus, HEp-2, 120 h, read-out: Human RSV-A (“Long” strain) EC50. The experiment is classed as cell-based, Human respiratory syncytial virus (HRSV). A digest of the protocol: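 Cytopathic-effect protection was read as ATP content (ATPlite luminescence) after a 5-day incubation. Setup: Hep-2 cells at 8,000 per well, RSV-A Long at MOI 0.1, 2-fold serial compound dilutions in duplicate. Cytotoxicity (CC50) was measured on an identical uninfected plate run in parallel.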

In general, EC50 refers to the concentration giving half of the maximal effect. As to `O=C1Nc2ccccc2C(c2ccccc2)=NC1Nc1nnc(-c2cccnc2N2C[C@H]3C[C@@H]2CO3)o1` (stereo partly drawn) [Example 264], the EC50 was above 800 nM. Under `O=C1Nc2ccccc2C(c2ccccc2)=NC1Nc1nnc(-c2cccnc2N2C3CCC2COC3)o1` (stereo not drawn) [Example 265] stands above 800 nM.

On to `O=C1Nc2ccccc2C(c2ccccc2)=NC1Nc1nnc(-c2cccnc2N2CC3CCC(C2)O3)o1` (stereo not drawn) [Example 266], for which the EC50 fell in the range of 400 to 800 nM.

In the case of `O=C1Nc2ccccc2C(c2ccccc2)=NC1Nc1nnc(-c2cccnc2N2C[C@H]3COC[C@H]3C2)o1` (stereo partly drawn) [Example 267], the EC50 is above 800 nM. With `O=C1Nc2ccccc2C(c2ccccc2)=N[C@@H]1Nc1nnc(-c2cccnc2N2CCn3ncnc3C2)o1` [Example 270] the figure was above 800 nM. As to `COC1CN(c2cc(C(F)(F)F)cnc2-c2nnc(N[C@H]3N=C(c4ccccc4)c4ccccc4NC3=O)o2)C1` [Example 271], the EC50 is above 800 nM.

Consider `O=C1Nc2ccccc2C(c2ccccc2)=NC1Nc1nnc(-c2ccc(-n3cncn3)cc2)o1` (stereo not drawn) [Example 273], for which the EC50 lay in the range of 400 to 800 nM. With `N#CC1CN(c2ncccc2-c2nnc(NC3N=C(c4ccccc4)c4ccccc4NC3=O)o2)C1` (stereo not drawn) [Example 274], the EC50 was above 800 nM. Under `O=C1Nc2ccccc2C(c2ccccc2)=N[C@@H]1Nc1nnc(-c2ccc(C(F)(F)F)nc2N2C3CCC2COC3)o1` [Example 275] stands above 800 nM.

Consider `Cc1ccc(-c2nnc(N[C@H]3N=C(c4ccccc4)c4ccccc4NC3=O)o2)c(N2CC3CCC(C2)O3)n1` [Example 279], for which the EC50 was below 400 nM. Under `Cc1ccc(-c2nnc(N[C@H]3N=C(c4ccccc4)c4ccccc4NC3=O)o2)c(N2C3CCC2COC3)n1` [Example 280] stands below 400 nM; under `N#Cc1ccc(-c2nnc(N[C@H]3N=C(c4ccccc4)c4ccccc4NC3=O)o2)c(N2CC3CCC(C2)O3)c1` [Example 281], below 400 nM; under `O=C1Nc2ccccc2C(c2ccccc2)=N[C@@H]1Nc1nnc(-c2ncc(C(F)(F)F)cc2-c2ccncc2)o1` [Example 282], above 800 nM. With `O=C1Nc2ccccc2C(c2ccccc2)=NC1Nc1nnc(-c2ccccc2-n2cccn2)o1` (stereo not drawn) [Example 283] the figure was above 800 nM; with `C[C@@H]1CN(c2cc(F)ccc2-c2nnc(N[C@H]3N=C(c4ccccc4)c4ccccc4NC3=O)o2)C[C@H](C)O1` [Example 284], above 800 nM; with `C[C@@H]1COCCN1c1cc(C#N)ccc1-c1nnc(N[C@H]2N=C(c3ccccc3)c3ccccc3NC2=O)o1` [Example 285], below 400 nM. For `Cc1ccc(-c2nnc(N[C@H]3N=C(c4ccccc4)c4ccccc4NC3=O)o2)c(N2CCOC[C@H]2C)n1` [Example 286], the EC50 was below 400 nM. Under `O=C1Nc2ccccc2C(c2ccccc2)=NC1Nc1nnc(C23CCN(CC2)CC3)o1` (stereo not drawn) [Example 287] stands above 800 nM; under `O=C1Nc2ccccc2C(c2ccccc2)=N[C@@H]1Nc1nnc(-c2ccc(F)cc2N2CC3CCC(C2)O3)o1` [Example 288], 400 to 800 nM; under `N#Cc1ccc(-c2nnc(N[C@H]3N=C(c4ccccc4)c4ccccc4NC3=O)o2)c(N2C3CCC2COC3)c1` [Example 289], below 400 nM.

As to `O=C1Nc2ccccc2C(c2ccccc2)=N[C@@H]1Nc1nnc(-c2cnc(C(F)(F)F)nc2N2CC3CCC(C2)O3)o1` [Example 290], the EC50 was above 800 nM. With `N#Cc1c[nH]c2cc(-c3nnc(N[C@H]4N=C(c5ccccc5)c5ccccc5NC4=O)o3)ccc12` [Example 291] the figure was above 800 nM. In the case of `O=C1Nc2ccccc2C(c2ccccc2)=N[C@@H]1Nc1nnc(-c2nnsc2N2CCOCC2)o1` [Example 292], the EC50 is below 400 nM.

For `O=C1Nc2ccccc2C(c2ccccc2)=N[C@@H]1Nc1nnc(-c2ncc(C(F)(F)F)cc2C2CC2)o1` [Example 293], the EC50 was above 800 nM. For `C[C@@H]1COCCN1c1cc(C(F)(F)F)cnc1-c1nnc(N[C@H]2N=C(c3ccccc3)c3ccccc3NC2=O)o1` [Example 294], the EC50 is below 400 nM.

Consider `COc1ccc(-c2nnc(N[C@H]3N=C(c4ccccc4)c4ccccc4NC3=O)o2)c(N2CCOCC2)n1` [Example 295], for which the EC50 is below 400 nM. With `CN1CCN(c2cc(C(F)(F)F)cnc2-c2nnc(N[C@H]3N=C(c4ccccc4)c4ccccc4NC3=O)o2)CC1=O` [Example 296] the figure was above 800 nM; with `CC(C)(O)CNc1cc(C(F)(F)F)cnc1-c1nnc(N[C@H]2N=C(c3ccccc3)c3ccccc3NC2=O)o1` [Example 297], below 400 nM; with `COCCn1c(-c2nnc(N[C@H]3N=C(c4ccccc4)c4ccccc4NC3=O)o2)nc2ccccc21` [Example 298], above 800 nM. As for `O=C1Nc2ccccc2C(c2ccccc2)=N[C@@H]1Nc1nnc(-c2ncc(F)cc2N2CC3CCC(C2)O3)o1` [Example 299], the EC50 is below 400 nM.

Turning to `C[C@@H]1COCCN1c1cc(C#N)cnc1-c1nnc(N[C@H]2N=C(c3ccccc3)c3ccccc3NC2=O)o1` [Example 301], the EC50 is below 400 nM. With `CN(C)c1cc(C(F)(F)F)cnc1-c1nnc(N[C@H]2N=C(c3ccccc3)c3ccccc3NC2=O)o1` [Example 302] the figure was above 800 nM; with `COCCNc1cc(C(F)(F)F)cnc1-c1nnc(N[C@H]2N=C(c3ccccc3)c3ccccc3NC2=O)o1` [Example 305], below 400 nM. With `COCCn1ccnc1-c1nnc(N[C@H]2N=C(c3ccccc3)c3ccccc3NC2=O)o1` [Example 306] the figure was above 800 nM; with `CNc1cc(C(F)(F)F)cnc1-c1nnc(N[C@H]2N=C(c3ccccc3)c3ccccc3NC2=O)o1` [Example 307], above 800 nM; with `CN(CC(C)(C)O)c1cc(C(F)(F)F)cnc1-c1nnc(N[C@H]2N=C(c3ccccc3)c3ccccc3NC2=O)o1` [Example 308], above 800 nM. With `N#Cc1ccc(-c2nnc(N[C@H]3N=C(c4ccccc4)c4ccccc4NC3=O)o2)c(-c2ccsc2)c1` [Example 309] the figure was above 800 nM. On to `COCCn1nccc1-c1nnc(N[C@H]2N=C(c3ccccc3)c3ccccc3NC2=O)o1` [Example 310], for which the EC50 is above 800 nM.

`C#Cc1cnc(-c2nnc(N[C@H]3N=C(c4ccccc4)c4ccccc4NC3=O)o2)c(N2CCOCC2)c1` [Example 311]: the EC50 was below 400 nM.

Regarding `O=C1Nc2ccccc2C(c2ccccc2)=N[C@@H]1Nc1nnc(-c2ncc(C3=CCCCC3)cc2N2CCOCC2)o1` [Example 312], the EC50 is 400 to 800 nM. Under `O=C1Nc2ccccc2C(c2ccccc2)=N[C@@H]1Nc1nnc(-c2ncc(C3CCCCC3)cc2N2CCOCC2)o1` [Example 313] stands below 400 nM; under `O=C1Nc2ccccc2C(c2ccccc2)=N[C@@H]1Nc1nnc(-c2ncc(N3CCCC3)cc2N2CCOCC2)o1` [Example 314], below 400 nM. Under `O=C1Nc2ccccc2C(c2ccccc2)=N[C@@H]1Nc1nnc(-c2ncc3ccccc3c2N2CCOCC2)o1` [Example 316] stands above 800 nM; under `O=C1Nc2ccccc2C(c2ccccc2)=N[C@@H]1Nc1nnc(-c2ccc(N3CCCC3)cc2N2CCOCC2)o1` [Example 317], below 400 nM; under `O=C1Nc2ccccc2C(c2ccccc2)=N[C@@H]1Nc1nnc(-c2nc(C3CC3)ccc2N2CCOCC2)o1` [Example 318], below 400 nM. Under `N#Cc1ccc(-c2nnc(N[C@H]3N=C(c4ccccc4)c4ccccc4NC3=O)o2)c(-c2ccoc2)c1` [Example 319] stands above 800 nM. `Cc1noc(C)c1-c1cc(C#N)ccc1-c1nnc(N[C@H]2N=C(c3ccccc3)c3ccccc3NC2=O)o1` [Example 320]: the EC50 was above 800 nM. As to `O=C1Nc2ccccc2C(c2ccccc2)=N[C@@H]1Nc1nnc(-c2ncc(C3CC3)cc2N2CC3CCC(C2)O3)o1` [Example 321], the EC50 is below 400 nM. Under `N#Cc1cc(N2CCOCC2)c(-c2nnc(N[C@H]3N=C(c4ccccc4)c4ccccc4NC3=O)o2)s1` [Example 323] stands below 400 nM.

On to `N#Cc1ccc(N2CCOCC2)c(-c2nnc(N[C@H]3N=C(c4ccccc4)c4ccccc4NC3=O)o2)n1` [Example 324], for which the concentration giving a half-maximal response (EC50) is below 400 nM. For `N#Cc1cnc(-c2nnc(N[C@H]3N=C(c4ccccc4)c4ccccc4NC3=O)o2)c(N2CCOCC2)c1` [Example 325], the EC50 is below 400 nM.

For `C[C@@H]1CN(c2cc(C#N)cnc2-c2nnc(N[C@H]3N=C(c4ccccc4)c4ccccc4NC3=O)o2)CCO1` [Example 326], the concentration for a half-maximal effect (EC50) was 400 to 800 nM. `CN1CCN(c2cc(C(F)(F)F)cnc2-c2nnc(N[C@H]3N=C(c4ccccc4)c4ccccc4NC3=O)o2)CC1` [Example 327]: the EC50 is 400 to 800 nM. As to `O=C1Nc2ccccc2C(c2ccccc2)=N[C@@H]1Nc1nnc(-c2ncc(C(F)(F)F)cc2N2CCC(O)CC2)o1` [Example 328], the EC50 was above 800 nM. Under `C[C@H]1CN(c2cc(C#N)cnc2-c2nnc(N[C@H]3N=C(c4ccccc4)c4ccccc4NC3=O)o2)CCO1` [Example 329] stands below 400 nM; under `Cc1cc(-c2nnc(N[C@H]3N=C(c4ccccc4)c4ccccc4NC3=O)o2)c(N2CCOCC2)s1` [Example 330], below 400 nM.

In the case of `N#CCNc1cc(C(F)(F)F)cnc1-c1nnc(N[C@H]2N=C(c3ccccc3)c3ccccc3NC2=O)o1` [Example 331], the EC50 is above 800 nM. With `CS(=O)(=O)c1cnc(-c2nnc(N[C@H]3N=C(c4ccccc4)c4ccccc4NC3=O)o2)c(N2CCOCC2)c1` [Example 332] the figure was above 800 nM; with `N#Cc1cnc(-c2nnc(N[C@H]3N=C(c4ccccc4)c4ccccc4NC3=O)o2)c(N2C3CCC2COC3)c1` [Example 333], 400 to 800 nM; with `COCCNc1sc(C)nc1-c1nnc(N[C@H]2N=C(c3ccccc3)c3ccccc3NC2=O)o1` [Example 335], below 400 nM. With `Cc1nc(-c2nnc(N[C@H]3N=C(c4ccccc4)c4ccccc4NC3=O)o2)c(N2CCOCC2)o1` [Example 337] the figure was below 400 nM. As for `COc1ccccc1-c1nc(-c2nnc(N[C@H]3N=C(c4ccccc4)c4ccccc4NC3=O)o2)c(N2CCOCC2)s1` [Example 342], the EC50 is below 400 nM.

Regarding `Cc1nc(-c2nnc(N[C@H]3N=C(c4ccccc4)c4ccccc4NC3=O)o2)cs1` [Example 343], the EC50 is above 800 nM.
